The text below walks through data of article PMC6651548, “Synthesis and AChE Inhibitory Activity of Novel Thiazolylhydrazone Derivatives” (Molecules, 2019).

Molecules are shown by their SMILES.

For assay [1], the target named is BChE (Homo sapiens, UniProt P06276). Kind of assay: Anticholinesterase activity assay (modified Ellman method), BChE. It is filed as biochemical. As to the method:
. Initially, all the obtained compounds were tested at 10^−3 M and 10^−4 M concentrations and the ChE inhibitory results are outlined in Table 1. […]. Compounds 3a, 3c and 3i indicated more than 50% activity at the 10^−4 M concentration. […]. […] According to the results of activity tests, some general results can be listed as follows. The compounds 3a, 3c and 3i contain the non-substituted, methoxy and trifluoromethyl substituents on the phenyl ring, respectively. […]
The inhibitory capacity of the obtained compounds on AChE and BChE biological activities was assessed using a modified Ellman’s spectrometric method, as described in our previous studies. Donepezil were used as a reference drug. All pipetting procedures in the enzyme inhibition assay were carried out via a robotics system, Biotek Precision XS (Winooski, VT, USA). A BioTek-Synergy H1 microplate reader (Winooski, VT, USA) was used to carry out measurements of percent inhibition at 412 nm, and the IC50 values of the selected compounds were performed as previously described.

Assay [2] addresses T1, hMAO-B (Homo sapiens, UniProt P27338).
T1 construct: purchased Sigma-Aldrich (Steinheim, Germany)
T1 sequence (P27338 1-520): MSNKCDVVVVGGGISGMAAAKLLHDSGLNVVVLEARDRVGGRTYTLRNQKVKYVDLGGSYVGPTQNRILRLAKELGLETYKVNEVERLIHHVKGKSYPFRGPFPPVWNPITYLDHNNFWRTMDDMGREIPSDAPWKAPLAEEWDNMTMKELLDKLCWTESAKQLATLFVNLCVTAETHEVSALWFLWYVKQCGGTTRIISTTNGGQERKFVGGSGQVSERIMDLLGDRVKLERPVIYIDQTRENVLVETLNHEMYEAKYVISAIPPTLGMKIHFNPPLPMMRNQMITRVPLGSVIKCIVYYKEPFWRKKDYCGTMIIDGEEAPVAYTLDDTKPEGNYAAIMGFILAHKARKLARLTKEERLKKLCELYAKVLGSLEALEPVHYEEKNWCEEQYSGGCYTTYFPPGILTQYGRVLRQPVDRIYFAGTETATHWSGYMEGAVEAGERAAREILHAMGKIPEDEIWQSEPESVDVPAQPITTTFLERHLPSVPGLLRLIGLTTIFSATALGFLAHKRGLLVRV
Briefly: biochemical. As to the method:
Test compounds and standard drugs were used in the same concentrations as in AChE and BChE enzyme activity assays. […] To investigate the MAO-A and MAO-B enzyme inhibition profiles of the synthesized compounds, the fluorometric enzyme inhibition assay was carried out, as previously defined by us. Ampliflu™ Red (10-Acetyl-3,7-dihydroxyphenoxazine) was used as a fluorescence reagent in this assay.

In assay [3] the target is T2, hMAO-A (Homo sapiens, UniProt P21397).
T2 construct: purchased Sigma-Aldrich (Steinheim, Germany)
T2 sequence (P21397 1-527): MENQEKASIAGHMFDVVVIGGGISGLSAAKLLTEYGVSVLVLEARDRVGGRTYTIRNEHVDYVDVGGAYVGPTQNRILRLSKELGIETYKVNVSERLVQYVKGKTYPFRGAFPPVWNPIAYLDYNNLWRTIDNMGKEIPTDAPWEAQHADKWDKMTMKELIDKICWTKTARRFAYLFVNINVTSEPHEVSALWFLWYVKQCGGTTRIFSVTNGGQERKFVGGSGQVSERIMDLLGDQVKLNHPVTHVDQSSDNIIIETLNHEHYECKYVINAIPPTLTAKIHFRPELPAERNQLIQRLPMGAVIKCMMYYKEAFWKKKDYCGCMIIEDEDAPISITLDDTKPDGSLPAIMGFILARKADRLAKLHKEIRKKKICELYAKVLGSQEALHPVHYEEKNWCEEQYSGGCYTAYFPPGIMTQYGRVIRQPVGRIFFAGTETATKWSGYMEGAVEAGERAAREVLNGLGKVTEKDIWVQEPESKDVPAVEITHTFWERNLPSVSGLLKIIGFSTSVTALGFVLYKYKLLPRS
Kind of assay: Monoamine oxidase fluorometric inhibition assay, MAO-A. In kind it is biochemical. On the procedure: In order to investigate the monoamine oxidase enzyme inhibitory effects of synthesized compounds, MAO-A and MAO-B enzyme activities were performed by using a fluorometric inhibition method. Moclobemide and selegiline were used as standard drugs for MAO-A and MAO-B enzymes, respectively. Test compounds and standard drugs were used in the same concentrations as in AChE and BChE enzyme activity assays. In Table 2, MAO enzyme inhibitory results are given. […]. To investigate the MAO-A and MAO-B enzyme inhibition profiles of the synthesized compounds, the fluorometric enzyme inhibition assay was carried out, as previously defined by us. Ampliflu™ Red (10-Acetyl-3,7-dihydroxyphenoxazine) was used as a fluorescence reagent in this assay.

Assay [4] has as its target T3, AChE (Homo sapiens, UniProt P22303). Kind of assay: biochemical.
Assay [5] deals with T3, AChE. Kind of assay: Enzyme kinetic studies of AChE inhibition (Lineweaver-Burk plots). In kind it is biochemical. As to the method: . The type of inhibition was estimated by means of linear Lineweaver-Burk […], and the substrate speed curves in the presence and absence of 3a, 3c and 3i of the strongest compounds were verified in the enzyme kinetics analysis. […] In the initial velocity measurements, different substrate concentrations, ranging from 600 µM to 18.75 µM, were used for the AChE enzyme. The secondary plots of the Km/Vmax (slope) versus changing concentrations were used to determine Ki (intercept on the x-axis) values of compounds [30]. […] Reversible inhibition comprises of the ensuing subtypes: competitive, uncompetitive, noncompetitive or mixed-type. Such inhibitions can be determined using Lineweaver–Burk plots. […] Based on the gained plot, a mixed type of inhibition by compound 3c was established. That is, the compound can bind to the enzyme–substrate complex or to the free enzyme. It also means that the compound is a reversible inhibitor; reversible compounds can be bound to the enzyme by non-covalent interactions such as ionic bonds, hydrophobic interactions and hydrogen bonds deprived of any chemical bonding or reaction with the enzyme. These interactions take place quickly and can be easily reversed. For that reason, the enzyme–inhibitor complex is rapidly degraded immediately before irreversible inhibition. […]

T3 sequence (P22303 32-614): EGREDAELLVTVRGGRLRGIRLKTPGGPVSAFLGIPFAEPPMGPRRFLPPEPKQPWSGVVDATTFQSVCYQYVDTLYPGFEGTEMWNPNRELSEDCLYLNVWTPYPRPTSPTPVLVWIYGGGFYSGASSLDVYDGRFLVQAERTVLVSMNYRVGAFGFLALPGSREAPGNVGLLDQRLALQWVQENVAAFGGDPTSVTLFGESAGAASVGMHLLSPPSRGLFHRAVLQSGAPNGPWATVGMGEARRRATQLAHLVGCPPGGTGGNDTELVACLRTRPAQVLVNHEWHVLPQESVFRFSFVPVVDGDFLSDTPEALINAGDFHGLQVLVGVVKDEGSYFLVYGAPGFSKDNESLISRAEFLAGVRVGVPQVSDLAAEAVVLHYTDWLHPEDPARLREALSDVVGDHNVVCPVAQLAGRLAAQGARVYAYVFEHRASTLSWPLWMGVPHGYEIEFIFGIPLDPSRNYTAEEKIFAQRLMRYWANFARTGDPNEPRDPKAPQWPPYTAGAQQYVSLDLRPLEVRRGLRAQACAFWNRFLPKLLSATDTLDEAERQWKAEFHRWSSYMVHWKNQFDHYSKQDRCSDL
Chain of BChE (P06276 29-602): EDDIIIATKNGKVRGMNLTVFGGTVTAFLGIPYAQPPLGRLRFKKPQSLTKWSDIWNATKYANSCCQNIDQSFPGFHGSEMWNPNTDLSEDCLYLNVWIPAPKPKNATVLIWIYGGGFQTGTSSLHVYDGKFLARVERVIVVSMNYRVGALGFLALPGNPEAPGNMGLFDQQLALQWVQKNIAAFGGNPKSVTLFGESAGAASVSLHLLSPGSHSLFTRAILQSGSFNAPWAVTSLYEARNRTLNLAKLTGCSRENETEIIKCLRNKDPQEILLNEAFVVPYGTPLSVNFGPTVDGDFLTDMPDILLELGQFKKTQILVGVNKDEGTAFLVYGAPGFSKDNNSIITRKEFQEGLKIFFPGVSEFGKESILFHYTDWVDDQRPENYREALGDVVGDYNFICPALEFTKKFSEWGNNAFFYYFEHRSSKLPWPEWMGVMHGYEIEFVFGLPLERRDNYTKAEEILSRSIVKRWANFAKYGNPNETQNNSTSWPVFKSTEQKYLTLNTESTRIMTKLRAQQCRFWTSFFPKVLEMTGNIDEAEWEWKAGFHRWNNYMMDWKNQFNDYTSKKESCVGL

On to `COc1ccc(-c2csc(NN=Cc3ccc(N4CCN(c5ccc(F)cc5)CC4)cc3)n2)cc1` [Compound 3c, 2-(2-(4-(4-(4-fluorophenyl)piperazin-1-yl)benzylidene)hydrazineyl)-4-(4-methoxyphenyl)thiazole], for which the inhibition at 1000 µM was 28 ± 0.43% in assay [1] (10^−3 M); 85.1 ± 1% in assay [2] (10^−3 M, read-out: MAO-B % Inhibition); 38.6 ± 0.58% in assay [3] (10^−3 M); 88.5 ± 1.1% in assay [4] (10^−3 M). The inhibition at 100 µM in assay [1] (10^−4 M) was determined as 21.6 ± 0.65%; in assay [2] (10^−4 M, read-out: MAO-B % Inhibition), 70.3 ± 0.85%; in assay [3] (10^−4 M), 21.8 ± 0.55%. Moreover, the half-maximal inhibitory concentration (IC50) in assay [2] (read-out: MAO-B IC50) came to 1020 ± 42 nM; in assay [4] (10^−3–10^−9 M concentrations), 31.7 ± 1 nM. Moreover, the type of inhibition result in assay [5] (Lineweaver–Burk plots, 2 × IC50, IC50 and IC50/2, substrate 600 µM to 18.75 µM) is “mixed type”. The inhibition constant (Ki) in assay [5] (secondary plot of Km/Vmax (slope) versus inhibitor concentration, read-out: steady-state inhibition constant (Ki)) stood at 19.7 nM.
